Laboratory results published in publication PMC12670405, “Second-Generation AURKA-Targeting PROTACs: Structural Optimization toward in Vivo Degradation in Neuroblastoma” (Journal of Medicinal Chemistry, 2025).

Key:
PRKR = target: T1, PRKR (Homo sapiens, UniProt P19525); test: KINOMEscan scanMAX; type: binding; conditions: read-out: Percent Control
T1 construct: purchased Eurofins Discovery (DiscoverX KINOMEscan scanMAX)
Method: (§1) The kinome-wide binding assay was performed by Eurofins Discovery using the scanMAX screening platform. More information can be found on the Eurofins Discovery Web site.

PHKG1 = target: T2, PHKG1 (Homo sapiens, UniProt Q16816); test: KINOMEscan scanMAX; type: binding; conditions: read-out: Percent Control
T2 construct: purchased Eurofins Discovery (DiscoverX KINOMEscan scanMAX)
T2 sequence (Q16816 whole entry): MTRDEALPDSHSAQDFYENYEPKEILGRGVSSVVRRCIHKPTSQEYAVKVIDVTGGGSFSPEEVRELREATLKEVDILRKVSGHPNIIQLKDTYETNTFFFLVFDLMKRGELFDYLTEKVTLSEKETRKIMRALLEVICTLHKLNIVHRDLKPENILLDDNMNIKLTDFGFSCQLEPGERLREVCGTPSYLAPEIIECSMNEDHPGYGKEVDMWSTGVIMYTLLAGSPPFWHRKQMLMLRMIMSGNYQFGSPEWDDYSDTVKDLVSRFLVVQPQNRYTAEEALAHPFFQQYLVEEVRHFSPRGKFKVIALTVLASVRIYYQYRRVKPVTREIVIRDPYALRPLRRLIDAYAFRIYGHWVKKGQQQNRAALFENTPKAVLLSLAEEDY
Method: as §1

SLK = target: T3, SLK (Homo sapiens, UniProt Q9H2G2); test: KINOMEscan scanMAX; type: binding; conditions: read-out: Percent Control
T3 construct: purchased Eurofins Discovery (DiscoverX KINOMEscan scanMAX)
Method: as §1

MEK4 = target: T4, MEK4 (Homo sapiens, UniProt P45985); test: KINOMEscan scanMAX; type: binding; conditions: read-out: Percent Control
T4 construct: purchased Eurofins Discovery (DiscoverX KINOMEscan scanMAX)
Method: as §1

CAMK1D = target: T5, CAMK1D (Homo sapiens, UniProt Q8IU85); test: KINOMEscan scanMAX; type: binding; conditions: read-out: Percent Control
T5 construct: purchased Eurofins Discovery (DiscoverX KINOMEscan scanMAX)
T5 sequence (Q8IU85 whole entry): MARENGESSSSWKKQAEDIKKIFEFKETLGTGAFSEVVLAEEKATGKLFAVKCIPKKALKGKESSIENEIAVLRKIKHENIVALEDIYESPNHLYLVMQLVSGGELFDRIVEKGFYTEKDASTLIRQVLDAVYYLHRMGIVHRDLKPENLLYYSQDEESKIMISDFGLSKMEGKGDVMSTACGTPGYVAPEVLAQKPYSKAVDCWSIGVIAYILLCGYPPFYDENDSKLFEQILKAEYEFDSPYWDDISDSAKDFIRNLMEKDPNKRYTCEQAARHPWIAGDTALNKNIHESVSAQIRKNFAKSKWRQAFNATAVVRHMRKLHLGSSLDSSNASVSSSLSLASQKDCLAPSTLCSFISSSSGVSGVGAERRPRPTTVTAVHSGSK
Method: as §1

NEK4 = target: T6, NEK4 (Homo sapiens, UniProt P51957); test: KINOMEscan scanMAX; type: binding; conditions: read-out: Percent Control
T6 construct: purchased Eurofins Discovery (DiscoverX KINOMEscan scanMAX)
Method: as §1

ABL2 = target: T7, ABL2 (Homo sapiens, UniProt P42684); test: KINOMEscan scanMAX; type: binding; conditions: read-out: Percent Control
T7 construct: purchased Eurofins Discovery (DiscoverX KINOMEscan scanMAX)
Method: as §1

TESK1 = target: T8, TESK1 (Homo sapiens, UniProt Q15569); test: KINOMEscan scanMAX; type: binding; conditions: read-out: Percent Control
T8 construct: purchased Eurofins Discovery (DiscoverX KINOMEscan scanMAX)
T8 sequence (Q15569 whole entry): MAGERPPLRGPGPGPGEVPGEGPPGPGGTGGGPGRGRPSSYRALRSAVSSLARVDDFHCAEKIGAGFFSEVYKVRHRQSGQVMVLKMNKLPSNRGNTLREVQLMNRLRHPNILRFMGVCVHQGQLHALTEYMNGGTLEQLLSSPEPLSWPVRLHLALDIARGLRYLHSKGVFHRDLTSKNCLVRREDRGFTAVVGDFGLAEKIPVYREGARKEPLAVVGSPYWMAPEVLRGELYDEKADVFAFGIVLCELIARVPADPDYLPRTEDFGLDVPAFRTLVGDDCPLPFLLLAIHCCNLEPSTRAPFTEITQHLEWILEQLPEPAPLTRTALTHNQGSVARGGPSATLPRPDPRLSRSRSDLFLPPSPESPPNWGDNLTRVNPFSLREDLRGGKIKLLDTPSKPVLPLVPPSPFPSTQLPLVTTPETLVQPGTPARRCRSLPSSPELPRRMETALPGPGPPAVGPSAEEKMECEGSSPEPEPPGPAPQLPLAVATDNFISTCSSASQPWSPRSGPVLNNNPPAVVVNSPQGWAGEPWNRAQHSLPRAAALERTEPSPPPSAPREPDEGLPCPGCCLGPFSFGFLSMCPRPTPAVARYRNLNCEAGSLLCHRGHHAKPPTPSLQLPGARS
Method: as §1

KIT(V559D,T670I) = target: T9, KIT(V559D,T670I) (Homo sapiens, UniProt P10721, T670I/V559D); test: KINOMEscan scanMAX; type: binding; conditions: read-out: Percent Control
T9 construct: purchased Eurofins Discovery (DiscoverX KINOMEscan scanMAX)
Method: as §1

EPHA6 = target: T10, EPHA6 (Homo sapiens, UniProt Q9UF33); test: KINOMEscan scanMAX; type: binding; conditions: read-out: Percent Control
T10 construct: purchased Eurofins Discovery (DiscoverX KINOMEscan scanMAX)
Method: as §1

ABL1-nonphosphorylated = target: T11, ABL1-nonphosphorylated (Homo sapiens, UniProt P00519); test: KINOMEscan scanMAX; type: binding; conditions: read-out: Percent Control
T11 construct: purchased Eurofins Discovery (DiscoverX KINOMEscan scanMAX)
Method: as §1

CIT = target: T12, CIT (Homo sapiens, UniProt O14578); test: KINOMEscan scanMAX; type: binding; conditions: read-out: Percent Control
T12 construct: purchased Eurofins Discovery (DiscoverX KINOMEscan scanMAX)
T12 sequence (O14578 whole entry): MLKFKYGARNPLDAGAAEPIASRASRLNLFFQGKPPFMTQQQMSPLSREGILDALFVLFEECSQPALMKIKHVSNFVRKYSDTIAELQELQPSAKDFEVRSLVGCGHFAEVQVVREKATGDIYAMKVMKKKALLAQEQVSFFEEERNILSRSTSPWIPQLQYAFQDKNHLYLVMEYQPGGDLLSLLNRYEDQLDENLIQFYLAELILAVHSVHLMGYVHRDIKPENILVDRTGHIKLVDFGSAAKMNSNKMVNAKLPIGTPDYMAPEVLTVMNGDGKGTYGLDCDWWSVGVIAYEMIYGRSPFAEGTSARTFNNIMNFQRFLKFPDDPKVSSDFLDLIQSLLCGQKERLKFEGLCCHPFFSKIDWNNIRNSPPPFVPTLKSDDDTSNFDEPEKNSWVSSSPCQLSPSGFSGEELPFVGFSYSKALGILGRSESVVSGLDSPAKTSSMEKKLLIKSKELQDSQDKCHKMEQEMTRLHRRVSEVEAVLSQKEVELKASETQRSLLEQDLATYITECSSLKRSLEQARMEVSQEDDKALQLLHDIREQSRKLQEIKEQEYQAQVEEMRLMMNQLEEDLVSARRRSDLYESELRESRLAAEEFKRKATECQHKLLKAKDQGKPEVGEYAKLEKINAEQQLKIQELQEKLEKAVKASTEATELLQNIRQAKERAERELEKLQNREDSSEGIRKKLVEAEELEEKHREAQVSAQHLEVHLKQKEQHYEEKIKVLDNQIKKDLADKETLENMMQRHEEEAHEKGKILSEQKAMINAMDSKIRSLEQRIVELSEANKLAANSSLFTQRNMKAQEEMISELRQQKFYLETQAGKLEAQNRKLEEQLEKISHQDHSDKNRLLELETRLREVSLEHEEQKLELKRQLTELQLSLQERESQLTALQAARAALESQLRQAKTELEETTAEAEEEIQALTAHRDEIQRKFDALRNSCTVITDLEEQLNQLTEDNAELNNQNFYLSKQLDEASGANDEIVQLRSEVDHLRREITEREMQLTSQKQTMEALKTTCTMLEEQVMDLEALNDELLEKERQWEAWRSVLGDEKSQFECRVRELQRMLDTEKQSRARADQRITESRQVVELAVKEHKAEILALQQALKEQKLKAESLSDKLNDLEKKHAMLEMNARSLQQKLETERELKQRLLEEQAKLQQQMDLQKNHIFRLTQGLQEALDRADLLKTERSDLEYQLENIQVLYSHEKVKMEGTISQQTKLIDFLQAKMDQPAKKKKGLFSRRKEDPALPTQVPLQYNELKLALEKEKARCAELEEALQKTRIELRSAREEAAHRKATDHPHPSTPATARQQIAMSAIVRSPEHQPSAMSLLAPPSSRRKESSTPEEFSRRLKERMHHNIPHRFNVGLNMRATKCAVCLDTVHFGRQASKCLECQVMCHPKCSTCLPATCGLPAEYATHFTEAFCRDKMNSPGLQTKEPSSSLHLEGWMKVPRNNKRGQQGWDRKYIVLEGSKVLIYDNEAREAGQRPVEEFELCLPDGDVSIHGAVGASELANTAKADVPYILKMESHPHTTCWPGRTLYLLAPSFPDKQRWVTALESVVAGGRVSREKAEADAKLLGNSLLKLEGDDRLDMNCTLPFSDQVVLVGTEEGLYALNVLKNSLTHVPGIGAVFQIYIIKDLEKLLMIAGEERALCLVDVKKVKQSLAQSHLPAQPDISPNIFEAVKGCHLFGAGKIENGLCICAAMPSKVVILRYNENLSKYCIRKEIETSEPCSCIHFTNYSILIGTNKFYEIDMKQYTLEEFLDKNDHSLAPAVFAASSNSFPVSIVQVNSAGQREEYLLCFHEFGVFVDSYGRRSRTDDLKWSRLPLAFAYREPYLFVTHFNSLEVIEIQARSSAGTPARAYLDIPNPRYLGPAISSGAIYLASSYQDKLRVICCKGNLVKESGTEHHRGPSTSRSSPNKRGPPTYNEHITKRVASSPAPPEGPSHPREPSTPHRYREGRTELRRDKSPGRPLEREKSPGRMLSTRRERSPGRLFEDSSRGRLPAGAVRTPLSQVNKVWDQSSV
Method: as §1

TRKC = target: T13, TRKC (Homo sapiens, UniProt Q16288); test: KINOMEscan scanMAX; type: binding; conditions: read-out: Percent Control
T13 construct: purchased Eurofins Discovery (DiscoverX KINOMEscan scanMAX)
Method: as §1

PAK7 = target: T14, PAK7 (Homo sapiens, UniProt Q9P286); test: KINOMEscan scanMAX; type: binding; conditions: read-out: Percent Control
T14 construct: purchased Eurofins Discovery (DiscoverX KINOMEscan scanMAX)
T14 sequence (Q9P286 whole entry): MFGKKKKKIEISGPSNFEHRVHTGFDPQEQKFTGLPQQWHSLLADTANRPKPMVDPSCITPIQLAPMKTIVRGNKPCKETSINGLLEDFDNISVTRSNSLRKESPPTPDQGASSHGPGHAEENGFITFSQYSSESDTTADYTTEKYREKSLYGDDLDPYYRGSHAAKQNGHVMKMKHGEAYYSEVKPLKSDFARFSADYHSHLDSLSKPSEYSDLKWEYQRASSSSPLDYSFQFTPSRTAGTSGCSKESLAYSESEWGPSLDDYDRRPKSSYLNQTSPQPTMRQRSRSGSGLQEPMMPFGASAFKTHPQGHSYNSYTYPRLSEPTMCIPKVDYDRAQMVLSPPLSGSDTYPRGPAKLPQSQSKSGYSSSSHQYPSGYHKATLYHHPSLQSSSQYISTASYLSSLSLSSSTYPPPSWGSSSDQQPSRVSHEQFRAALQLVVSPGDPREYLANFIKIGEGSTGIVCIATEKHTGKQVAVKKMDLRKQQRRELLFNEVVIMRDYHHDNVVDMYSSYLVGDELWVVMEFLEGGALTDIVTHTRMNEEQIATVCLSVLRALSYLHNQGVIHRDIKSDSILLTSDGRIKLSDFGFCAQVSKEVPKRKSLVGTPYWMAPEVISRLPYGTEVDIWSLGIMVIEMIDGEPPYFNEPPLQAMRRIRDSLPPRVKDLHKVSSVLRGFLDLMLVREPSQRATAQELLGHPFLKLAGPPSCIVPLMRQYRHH
Method: as §1

TGFBR2 = target: T15, TGFBR2 (Homo sapiens, UniProt P37173); test: KINOMEscan scanMAX; type: binding; conditions: read-out: Percent Control
T15 construct: purchased Eurofins Discovery (DiscoverX KINOMEscan scanMAX)
Method: as §1

MAP3K15 = target: T16, MAP3K15 (Homo sapiens, UniProt Q6ZN16); test: KINOMEscan scanMAX; type: binding; conditions: read-out: Percent Control
T16 construct: purchased Eurofins Discovery (DiscoverX KINOMEscan scanMAX)
Method: as §1

RSF1 = test: LC-MS/MS proteome profiling; type: cell-based, Homo sapiens; conditions: SK5527 vs DMSO (24h)
Method: (§2) Analysis of the mass spectrometry data was performed in DiaNN (version 1.9). Precursor false discovery rate was set at 1%. Spectra were searched against the Homo sapiens protein sequences in the Uniprot database (database release version of 2024_01), containing 20,597 sequences (www.uniprot.org) and the imbedded protein contaminant list. Enzyme specificity was set as C-terminal to arginine and lysine, also allowing cleavage at proline bonds with a maximum of 2 missed cleavages. Variable modifications were set to oxidation of methionine residues and acetylation of protein N-termini while fixed modification was set to carbamidomethylation of cystein residues. Matching between runs was enabled. Mainly default settings were used, except for the addition of a 400-900 m/z precursor mass range filter and MS1 and MS2 mass tolerance was set to 10 and 20 ppm respectively.
(§3) Further data analysis of the results was performed with an in-house script in the R programming language.
(§4) Protein expression matrices were prepared as follows: the DIA-NN main report output table was filtered at a precursor and protein library q-value cut-off of 1 % and only proteins identified by at least one proteotypic peptide were retained. After pivoting into a wide format, iBAQ intensity columns were then added to the matrix using the DIAgui’s R package get_IBAQ function. PG MaxLFQ intensities were log2 transformed and replicate samples were grouped. Proteins with less than 3 valid values in at least one group were removed and missing values were imputed from a normal distribution centered around the detection limit (package DEP) leading to a list of 7,759 quantified proteins in the experiment, used for further data analysis. To compare protein abundance […]
(§5) 24h MK-5108 vs 24h DMSO sample groups), statistical testing for differences between two group means was performed, using the package limma. Statistical significance for differential regulation was set to a false discovery rate (FDR) of < 0.05 and |log2FC| = 2.

PLCXD1 = test: LC-MS/MS proteome profiling; type: cell-based, Homo sapiens; conditions: SK5527 vs DMSO (24h)
Method: as §2, §3, §4, §5

SMTN = test: LC-MS/MS proteome profiling; type: cell-based, Homo sapiens; conditions: SK5527 vs DMSO (24h)
Method: as §2, §3, §4, §5

ZNF7 = test: LC-MS/MS proteome profiling; type: cell-based, Homo sapiens; conditions: SK5527 vs DMSO (24h)
Method: as §2, §3, §4, §5

TROAP = test: LC-MS/MS proteome profiling; type: cell-based, Homo sapiens; conditions: SK5527 vs DMSO
Method: as §2, §3, §4, §5

SIPA1L3 = test: LC-MS/MS proteome profiling; type: cell-based, Homo sapiens; conditions: SK5527 vs DMSO (24h)
Method: as §2, §3, §4, §5

HAND2 = test: LC-MS/MS proteome profiling; type: cell-based, Homo sapiens; conditions: SK5527 vs DMSO (24h)
Method: as §2, §3, §4, §5

ARHGEF18 = test: LC-MS/MS proteome profiling; type: cell-based, Homo sapiens; conditions: SK5527 vs DMSO (24h)
Method: as §2, §3, §4, §5

SP2 = test: LC-MS/MS proteome profiling; type: cell-based, Homo sapiens; conditions: SK5527 vs DMSO (24h)
Method: as §2, §3, §4, §5

ABCA3 = test: LC-MS/MS proteome profiling; type: cell-based, Homo sapiens; conditions: SK5527 vs DMSO (24h)
Method: as §2, §3, §4, §5

SRSF10 = test: LC-MS/MS proteome profiling; type: cell-based, Homo sapiens; conditions: SK5527 vs DMSO (24h)
Method: as §2, §3, §4, §5

JMJD1C = test: LC-MS/MS proteome profiling; type: cell-based, Homo sapiens; conditions: SK5527 vs DMSO (24h)
Method: as §2, §3, §4, §5

ZNF337 = test: LC-MS/MS proteome profiling; type: cell-based, Homo sapiens; conditions: SK5527 vs DMSO (24h)
Method: as §2, §3, §4, §5

ZSCAN22 = test: LC-MS/MS proteome profiling; type: cell-based, Homo sapiens; conditions: SK5527 vs DMSO
Method: as §2, §3, §4, §5

T1 sequence (P19525 whole entry): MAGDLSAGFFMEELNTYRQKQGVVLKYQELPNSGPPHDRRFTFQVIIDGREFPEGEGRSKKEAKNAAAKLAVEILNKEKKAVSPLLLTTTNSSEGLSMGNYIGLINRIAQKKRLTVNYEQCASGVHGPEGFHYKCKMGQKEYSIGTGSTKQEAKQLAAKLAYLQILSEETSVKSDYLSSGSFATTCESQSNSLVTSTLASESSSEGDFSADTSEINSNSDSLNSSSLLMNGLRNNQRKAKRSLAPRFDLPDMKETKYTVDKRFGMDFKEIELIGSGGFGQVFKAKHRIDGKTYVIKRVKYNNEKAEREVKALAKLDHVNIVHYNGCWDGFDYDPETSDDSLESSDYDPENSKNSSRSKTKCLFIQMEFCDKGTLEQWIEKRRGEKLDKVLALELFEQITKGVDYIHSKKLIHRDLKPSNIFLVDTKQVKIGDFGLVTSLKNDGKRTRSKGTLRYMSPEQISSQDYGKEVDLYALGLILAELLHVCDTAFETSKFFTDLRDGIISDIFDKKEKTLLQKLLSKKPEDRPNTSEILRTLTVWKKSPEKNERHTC

Question: With `Cc1cc(Nc2ccc(F)c(CC3(C(=O)N4CCC(F)(CN5CCN(c6ccc(N7CCC(=O)NC7=O)cn6)CC5)CC4)CCN(Cc4cccc(Cl)c4F)CC3)n2)n[nH]1` [SK5527] as the compound, how does the remaining binding at 0.1 µM (PRKR; 100 nM) read?
Answer: Its remaining binding at 0.1 µM is 100%.

Question: And the remaining binding at 1 µM (PRKR; 1000 nM)?
Answer: Its remaining binding at 1 µM is 91%.

Question: And the remaining binding at 0.1 µM (PHKG1; 100 nM)?
Answer: Its remaining binding at 0.1 µM is 99%.

Question: What about the remaining binding at 1 µM (PHKG1; 1000 nM) of the same compound?
Answer: Its remaining binding at 1 µM is 100%.

Question: And the remaining binding at 0.1 µM (SLK; 100 nM)?
Answer: The remaining binding at 0.1 µM was 95%.

Question: And the remaining binding at 1 µM (SLK; 1000 nM)?
Answer: The remaining binding at 1 µM was 100%.

Question: What about the remaining binding at 0.1 µM (MEK4; 100 nM) of the same compound?
Answer: Its remaining binding at 0.1 µM is 94%.

Question: And the remaining binding at 1 µM (MEK4; 1000 nM)?
Answer: Its remaining binding at 1 µM is 73%.

Question: And the remaining binding at 0.1 µM (CAMK1D; 100 nM)?
Answer: Its remaining binding at 0.1 µM is 100%.

Question: And the remaining binding at 1 µM (CAMK1D; 1000 nM)?
Answer: The remaining binding at 1 µM was 100%.

Question: And the remaining binding at 0.1 µM (NEK4; 100 nM)?
Answer: The remaining binding at 0.1 µM was 72%.

Question: And the remaining binding at 1 µM (NEK4; 1000 nM)?
Answer: The remaining binding at 1 µM was 65%.

Question: What about the remaining binding at 0.1 µM (ABL2; 100 nM) of the same compound?
Answer: The remaining binding at 0.1 µM was 100%.

Question: What about the remaining binding at 1 µM (ABL2; 1000 nM) of the same compound?
Answer: The remaining binding at 1 µM was 66%.

Question: What about the remaining binding at 0.1 µM (TESK1; 100 nM) of the same compound?
Answer: The remaining binding at 0.1 µM was 66%.

Question: And the remaining binding at 1 µM (TESK1; 1000 nM)?
Answer: The remaining binding at 1 µM was 83%.

Question: What about the remaining binding at 0.1 µM (KIT(V559D,T670I); 100 nM) of the same compound?
Answer: Its remaining binding at 0.1 µM is 100%.

Question: And the remaining binding at 1 µM (KIT(V559D,T670I); 1000 nM)?
Answer: Its remaining binding at 1 µM is 89%.

Question: What about the remaining binding at 0.1 µM (EPHA6; 100 nM) of the same compound?
Answer: The remaining binding at 0.1 µM was 100%.

Question: What about the remaining binding at 1 µM (EPHA6; 1000 nM) of the same compound?
Answer: The remaining binding at 1 µM was 93%.

Question: And the remaining binding at 0.1 µM (ABL1-nonphosphorylated; 100 nM)?
Answer: The remaining binding at 0.1 µM was 55%.

Question: What about the remaining binding at 1 µM (ABL1-nonphosphorylated; 1000 nM) of the same compound?
Answer: The remaining binding at 1 µM was 8.4%.

Question: And the remaining binding at 0.1 µM (CIT; 100 nM)?
Answer: The remaining binding at 0.1 µM was 100%.

Question: And the remaining binding at 1 µM (CIT; 1000 nM)?
Answer: Its remaining binding at 1 µM is 100%.

Question: What about the remaining binding at 0.1 µM (TRKC; 100 nM) of the same compound?
Answer: The remaining binding at 0.1 µM was 97%.

Question: And the remaining binding at 1 µM (TRKC; 1000 nM)?
Answer: The remaining binding at 1 µM was 76%.

Question: What about the remaining binding at 0.1 µM (PAK7; 100 nM) of the same compound?
Answer: Its remaining binding at 0.1 µM is 98%.

Question: What about the remaining binding at 1 µM (PAK7; 1000 nM) of the same compound?
Answer: Its remaining binding at 1 µM is 74%.

Question: And the remaining binding at 0.1 µM (TGFBR2; 100 nM)?
Answer: Its remaining binding at 0.1 µM is 100%.

Question: And the remaining binding at 1 µM (TGFBR2; 1000 nM)?
Answer: The remaining binding at 1 µM was 100%.

Question: And the remaining binding at 0.1 µM (MAP3K15; 100 nM)?
Answer: Its remaining binding at 0.1 µM is 100%.

Question: What about the remaining binding at 1 µM (MAP3K15; 1000 nM) of the same compound?
Answer: The remaining binding at 1 µM was 81%.

Question: And the “logFC RSF1” value (RSF1)?
Answer: The value was 2.45.

Question: What about the “logFC PLCXD1” value (PLCXD1) of the same compound?
Answer: The value was -2.06.

Question: What about the “logFC SMTN” value (SMTN) of the same compound?
Answer: The value was 2.05.

Question: What about the “logFC ZNF7” value (ZNF7) of the same compound?
Answer: The value was -2.38.

Question: What about the “logFC TROAP” value (TROAP) of the same compound?
Answer: The value was 2.33.

Question: And the “logFC SIPA1L3” value (SIPA1L3)?
Answer: The value was -3.26.

Question: And the “logFC HAND2” value (HAND2)?
Answer: Its value is -3.26.

Question: What about the “logFC ARHGEF18” value (ARHGEF18) of the same compound?
Answer: The value was -5.19.

Question: And the “logFC SP2” value (SP2)?
Answer: The value was -2.23.

Question: What about the “logFC ABCA3” value (ABCA3) of the same compound?
Answer: Its value is -4.59.

Question: And the “logFC SRSF10” value (SRSF10)?
Answer: The value was 2.01.

Question: What about the “logFC JMJD1C” value (JMJD1C) of the same compound?
Answer: Its value is 2.49.

Question: What about the “logFC ZNF337” value (ZNF337) of the same compound?
Answer: The value was 2.22.

Question: And the “logFC ZSCAN22” value (ZSCAN22)?
Answer: Its value is -2.09.
